From ChEMBL document CHEMBL3588860, “Synthesis and antiproliferative activity of some novel benzo-fused imidazo[1,8]naphthyridinones” (Bioorg Med Chem Lett, 2015)

How the values were obtained:
[1] = Antiproliferative activity against human FM3 cells after 72 hrs by MTT assay; format: functional, cell-based; details: FM3, 72 h
[2] = Antiproliferative activity against human MES-SA/Dx5 cells after 72 hrs by MTT assay; format: functional, cell-based; details: MES-SA/Dx5, 72 h
[3] = test system: MES-SA; experiment: Ratio of IC50 for human MES-SA/Dx5 cells to IC50 for human MES-SA cells; format: functional
[4] = test system: HCT-116; experiment: Antiproliferative activity against human HCT116 cells after 72 hrs by MTT assay; format: functional, cell-based; details: HCT-116, 72 h
[5] = test system: Ishikawa; experiment: Antiproliferative activity against human Ishikawa cells after 72 hrs by MTT assay; format: functional, cell-based
[6] = test system: Daudi; experiment: Antiproliferative activity against human Daudi cells after 72 hrs by MTT assay; format: functional, cell-based
[7] = Antiproliferative activity against human MES-SA cells after 72 hrs by MTT assay; format: functional, cell-based
[8] = test system: HeLa; experiment: Antiproliferative activity against human HeLa cells after 72 hrs by MTT assay; format: functional, cell-based

| Structure (SMILES) | IC50 [1] | IC50 [2] | Ratio IC50 [3] | IC50 [4] | IC50 [5] | IC50 [6] | IC50 [7] | IC50 [8] |
| --- | --- | --- | --- | --- | --- | --- | --- | --- |
| CCN(CC)CCn1c2ccccc2c(=O)c2cc3ncn(C4CCCC4)c3nc21 | 28 µM | 15.5 µM | 1.46 | 8.2 µM | 28.6 µM | 10.6 µM | 10.6 µM | 11.7 µM |
| CCN(CC)CCn1c2ccccc2c(=O)c2cc3ncn(-c4ccccc4)c3nc21 | 4.83 µM | 10.4 µM | 1.99 | 12.9 µM | 11.3 µM | 4.93 µM | 5.2 µM | 7.27 µM |
| CC(C)n1cnc2cc3c(=O)c4ccccc4[nH]c3nc21 | 66.7 µM | 46 µM | 1.23 | 37.4 µM | 62.5 µM | 34.7 µM | 37.6 µM | 29.7 µM |
| O=c1c2ccccc2[nH]c2nc3c(cc12)ncn3C1CCCC1 | 30.1 µM | 17.2 µM | 0.86 | 42.4 µM | 60.8 µM | 15.3 µM | 20 µM | 21.4 µM |
| O=c1c2ccccc2[nH]c2nc3c(cc12)ncn3-c1ccccc1 | 51.1 µM | 34.4 µM | 0.73 | 73.1 µM | 50 µM | 31.3 µM | 47.4 µM | 27.6 µM |
| CC(C)n1cnc2cc3c(=O)c4ccccc4n(CCO)c3nc21 | 45.7 µM | 32.6 µM | 0.94 | 40.4 µM | 66.6 µM | 22.1 µM | 34.6 µM | 13.2 µM |
| O=c1c2ccccc2n(CCO)c2nc3c(cc12)ncn3C1CCCC1 | 66.4 µM | 22.2 µM | 0.97 | 48.7 µM | 66.4 µM | 19 µM | 22.9 µM | 23.4 µM |
| O=c1c2ccccc2n(CCO)c2nc3c(cc12)ncn3-c1ccccc1 | 74.8 µM | 47.9 µM | 0.93 | 32.9 µM | 101 µM | 20.5 µM | 51.7 µM | 15.3 µM |
| CC(C)n1cnc2cc3c(=O)c4ccccc4n(CCN(C)C)c3nc21 | 17 µM | 16.1 µM | 0.73 | 12.4 µM | 39.4 µM | 12.9 µM | 22 µM | 9.32 µM |
| CN(C)CCn1c2ccccc2c(=O)c2cc3ncn(C4CCCC4)c3nc21 | 42.4 µM | 25 µM | 0.76 | 30.4 µM | 39.1 µM | 18.9 µM | 32.8 µM | 28.9 µM |
| CN(C)CCn1c2ccccc2c(=O)c2cc3ncn(-c4ccccc4)c3nc21 | 29.8 µM | 41.7 µM | 0.88 | 27.9 µM | 43.6 µM | 33 µM | 47.3 µM | 23.3 µM |
| CCN(CC)CCn1c2ccccc2c(=O)c2cc3ncn(C(C)C)c3nc21 | 50.6 µM | 23.1 µM | 0.9 | 24.5 µM | 63.3 µM | 18 µM | 25.7 µM | 21.6 µM |
| COc1cccc2c1C(=O)c1c(O)c3c(c(O)c1C2=O)C[C@@](O)(C(=O)CO)C[C@@H]3O[C@H]1C[C@H](N)[C@H](O)[C@H](C)O1 [DOXORUBICIN] | 0.123 µM | 2.81 µM | 80.2 | 0.18 µM | 0.1 µM | 0.127 µM | 0.035 µM | 0.337 µM |
| O=C1c2c(O)ccc(O)c2C(=O)c2c(NCCNCCO)ccc(NCCNCCO)c21 [MITOXANTRONE] | 0.013 µM | 0.073 µM | 12.17 | 0.025 µM | 0.01 µM | 0.005 µM | 0.006 µM | 0.044 µM |
